Experimental data as given in ChEMBL document CHEMBL1201862, “PubChem BioAssay data set” (2004).
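Tested at 5 concentrations; 48 h exposure; 96-well plates; endpoints linearly interpolated, else capped at highest concentration. The concentration for 50% growth inhibition is given as GI50.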 The source made the active and inactive calls. No stated cut-off is given here; in the data, active = GI50 up to about 1.1 µM and inactive = higher.

Key:
Assay in all cases: growth of human tumour cells (NCI), 48 h
[1] = tested on: 786-0
[2] = tested on: A498
[3] = tested on: A549
[4] = tested on: ACHN
[5] = tested on: CAKI-1
[6] = tested on: CCRF-CEM
[7] = tested on: COLO 205
[8] = tested on: DLD-1
[9] = tested on: DMS-114
[10] = tested on: DMS-273
[11] = tested on: EKVX
[12] = tested on: HCC 2998
[13] = tested on: HCT-116
[14] = tested on: HCT-15
[15] = tested on: HL-60
[16] = tested on: HOP-18
[17] = tested on: HOP-62
[18] = tested on: HOP-92
[19] = tested on: HT-29
[20] = tested on: IGROV-1
[21] = tested on: K562
[22] = tested on: KM-20L2
[23] = tested on: KM12
[24] = tested on: LOX IMVI
[25] = tested on: LXFL 529
[26] = tested on: M14
[27] = tested on: M19-MEL
[28] = tested on: MOLT-4
[29] = tested on: Malme-3M
[30] = tested on: NCI-H226
[31] = tested on: NCI-H23
[32] = tested on: NCI-H460
[33] = tested on: NCI-H522
[34] = tested on: OVCAR-3
[35] = tested on: OVCAR-4
[36] = tested on: OVCAR-5
[37] = tested on: OVCAR-8
[38] = tested on: RPMI-8226
[39] = tested on: RXF 393
[40] = tested on: RXF 631
[41] = tested on: SF-268
[42] = tested on: SF-295
[43] = tested on: SF-539
[44] = tested on: SK-MEL-28
[45] = tested on: SK-MEL-2
[46] = tested on: SK-MEL-5
[47] = tested on: SK-OV-3
[48] = tested on: SN12C
[49] = tested on: SNB-19
[50] = tested on: SNB-75
[51] = tested on: SR
[52] = tested on: SW-620
[53] = tested on: TK-10
[54] = tested on: U-251
[55] = tested on: UACC-257
[56] = tested on: UACC-62
[57] = tested on: UO-31
[58] = tested on: XF498
[59] = tested on: SNB-78

Cc1ccc(CCNC(=S)SCC(NC(=O)CCC(N)C(=O)O)C(=O)NCC(=O)O)cc1 (stereo unspecified)
GI50 [1]: 0.385 µM (active) | GI50 [2]: 2.03 µM (inactive) | GI50 [3]: 3.57 µM (inactive) | GI50 [4]: 2.02 µM (inactive) | GI50 [5]: 1.41 µM (inactive) | GI50 [6]: 0.442 µM (active) | GI50 [7]: 2.51 µM (inactive) | GI50 [8]: 0.764 µM (active) | GI50 [9]: 0.873 µM (active) | GI50 [10]: 0.414 µM (active) | GI50 [11]: 6.19 µM (inactive) | GI50 [12]: 2.04 µM (inactive) | GI50 [13]: 2.17 µM (inactive) | GI50 [14]: 1.43 µM | GI50 [15]: 0.51 µM (active) | GI50 [16]: 2.52 µM (inactive) | GI50 [17]: 2.96 µM (inactive) | GI50 [18]: 1.17 µM (inactive) | GI50 [19]: 1.46 µM (inactive) | GI50 [20]: 2.11 µM (inactive) | GI50 [21]: 0.398 µM (active) | GI50 [22]: 2.12 µM (inactive) | GI50 [23]: 0.533 µM (active) | GI50 [24]: 0.388 µM (active) | GI50 [25]: 0.75 µM (active) | GI50 [26]: 1.22 µM (inactive) | GI50 [27]: 1.7 µM (inactive) | GI50 [28]: 1.23 µM (inactive) | GI50 [29]: 2.01 µM (inactive) | GI50 [30]: 2.26 µM (inactive) | GI50 [31]: 2.6 µM (inactive) | GI50 [32]: 2.61 µM (inactive) | GI50 [33]: 0.327 µM (active) | GI50 [34]: 2.17 µM (inactive) | GI50 [35]: 2.99 µM (inactive) | GI50 [36]: 2.51 µM (inactive) | GI50 [37]: 2 µM (inactive) | GI50 [38]: 0.288 µM (active) | GI50 [39]: 0.718 µM (active) | GI50 [40]: 2.2 µM (inactive) | GI50 [41]: 2.7 µM (inactive) | GI50 [42]: 2.81 µM (inactive) | GI50 [43]: 1.48 µM (inactive) | GI50 [44]: 2.75 µM (inactive) | GI50 [45]: 0.385 µM (active) | GI50 [46]: 1.73 µM (inactive) | GI50 [47]: 7.4 µM (inactive) | GI50 [48]: 1.76 µM (inactive) | GI50 [49]: 2.17 µM (inactive) | GI50 [50]: 0.435 µM (active) | GI50 [51]: 2.13 µM (inactive) | GI50 [52]: 0.767 µM (active) | GI50 [53]: 2.84 µM (inactive) | GI50 [54]: 1.87 µM (inactive) | GI50 [55]: 1.99 µM (inactive) | GI50 [56]: 1.41 µM (inactive) | GI50 [57]: 1.12 µM (inactive) | GI50 [58]: 1.49 µM (inactive)

CC1=C(Oc2ccccc2)C(CCC(=O)O)c2c(O)cc(Cl)c(O)c21 (stereo unspecified)
GI50 [1]: > 100 µM (inactive) | GI50 [2]: > 100 µM (inactive) | GI50 [3]: > 100 µM (inactive) | GI50 [5]: > 100 µM (inactive) | GI50 [6]: > 100 µM (inactive) | GI50 [7]: > 100 µM (inactive) | GI50 [8]: > 100 µM (inactive) | GI50 [9]: > 100 µM (inactive) | GI50 [10]: > 100 µM (inactive) | GI50 [11]: 71.9 µM (inactive) | GI50 [12]: > 100 µM (inactive) | GI50 [13]: > 100 µM (inactive) | GI50 [14]: > 100 µM | GI50 [15]: > 100 µM (inactive) | GI50 [17]: > 100 µM (inactive) | GI50 [18]: > 100 µM (inactive) | GI50 [20]: > 100 µM (inactive) | GI50 [21]: > 100 µM (inactive) | GI50 [22]: > 100 µM (inactive) | GI50 [23]: > 100 µM (inactive) | GI50 [24]: > 100 µM (inactive) | GI50 [26]: > 100 µM (inactive) | GI50 [27]: > 100 µM (inactive) | GI50 [28]: > 100 µM (inactive) | GI50 [31]: > 100 µM (inactive) | GI50 [32]: > 100 µM (inactive) | GI50 [33]: > 100 µM (inactive) | GI50 [34]: > 100 µM (inactive) | GI50 [35]: > 100 µM (inactive) | GI50 [37]: > 100 µM (inactive) | GI50 [38]: > 100 µM (inactive) | GI50 [39]: > 100 µM (inactive) | GI50 [40]: > 100 µM (inactive) | GI50 [41]: > 100 µM (inactive) | GI50 [42]: > 100 µM (inactive) | GI50 [43]: > 100 µM (inactive) | GI50 [44]: > 100 µM (inactive) | GI50 [45]: > 100 µM (inactive) | GI50 [46]: > 100 µM (inactive) | GI50 [48]: > 100 µM (inactive) | GI50 [49]: > 100 µM (inactive) | GI50 [59]: > 100 µM (inactive) | GI50 [51]: > 100 µM (inactive) | GI50 [52]: > 100 µM (inactive) | GI50 [53]: > 100 µM (inactive) | GI50 [54]: > 100 µM (inactive) | GI50 [55]: > 100 µM (inactive) | GI50 [57]: > 100 µM (inactive) | GI50 [58]: > 100 µM (inactive)

C[C@]12CCC(=O)C(O)=C1CC[C@@H]1C2CC[C@]2(C)Nc3c(cnn3-c3ccccc3)CC12 (stereo partly specified)
GI50 [1]: > 100 µM (inactive) | GI50 [2]: > 100 µM (inactive) | GI50 [3]: > 100 µM (inactive) | GI50 [4]: > 100 µM (inactive) | GI50 [5]: 56.9 µM (inactive) | GI50 [6]: 37.2 µM (inactive) | GI50 [8]: > 100 µM (inactive) | GI50 [10]: 56.4 µM (inactive) | GI50 [11]: > 100 µM (inactive) | GI50 [12]: > 100 µM (inactive) | GI50 [13]: 28.2 µM (inactive) | GI50 [14]: 49.9 µM | GI50 [15]: 23.8 µM (inactive) | GI50 [17]: > 100 µM (inactive) | GI50 [19]: 39.4 µM (inactive) | GI50 [20]: > 100 µM (inactive) | GI50 [21]: 40.6 µM (inactive) | GI50 [22]: 56.5 µM (inactive) | GI50 [23]: 31.7 µM (inactive) | GI50 [25]: 42.6 µM (inactive) | GI50 [26]: > 100 µM (inactive) | GI50 [27]: > 100 µM (inactive) | GI50 [28]: 32.6 µM (inactive) | GI50 [29]: 91 µM (inactive) | GI50 [30]: 64.3 µM (inactive) | GI50 [31]: 54.5 µM (inactive) | GI50 [32]: 48.8 µM (inactive) | GI50 [34]: 54.8 µM (inactive) | GI50 [35]: 96.2 µM (inactive) | GI50 [36]: > 100 µM (inactive) | GI50 [37]: 64.4 µM (inactive) | GI50 [38]: 27.4 µM (inactive) | GI50 [39]: 55.1 µM (inactive) | GI50 [40]: 29.9 µM (inactive) | GI50 [42]: 52.7 µM (inactive) | GI50 [43]: 67.6 µM (inactive) | GI50 [44]: > 100 µM (inactive) | GI50 [45]: > 100 µM (inactive) | GI50 [46]: 38.8 µM (inactive) | GI50 [47]: > 100 µM (inactive) | GI50 [50]: > 100 µM (inactive) | GI50 [59]: > 100 µM (inactive) | GI50 [52]: > 100 µM (inactive) | GI50 [53]: > 100 µM (inactive) | GI50 [54]: > 100 µM (inactive) | GI50 [55]: 39 µM (inactive) | GI50 [56]: 77.6 µM (inactive) | GI50 [57]: 26.3 µM (inactive) | GI50 [58]: > 100 µM (inactive)
